Reference: ChEMBL document CHEMBL2448809, “UCSF DeRisi Lab MMV Box Apicoplast Screening”

System: Plasmodium falciparum
Assay: MMV: Compounds (1uM) were screened in a 72hr growth assay monitored by flow cytometry both in the presence and absence of supplemental isopentenyl pyrophosphate (IPP) 200uM. Compounds which fail to show anti-malarial activity when chemically rescued by IPP are therefore specific to the apicoplast. The values are expressed as the ratio of the corresponding activity with and without IPP, respectively.
Type: functional, W2

| Structure (SMILES) | Ratio |
| --- | --- |
| O=C(NCC(c1ccsc1)N1CCCCCC1)c1ccc(C(F)(F)F)cc1 (configuration not stated) | 0.9077 |
| O=C(NCC1Cc2cccc(-c3ccncc3)c2O1)c1csc2c1CCCC2 (configuration not stated) | 0.6487 |
| COc1ccccc1CNC(=O)C1c2ccccc2C(=O)N(CC(C)C)C1c1cccs1 (configuration not stated) | 1.038 |
| COc1ccc(OC)c(C2C3=C(CC(C)(C)CC3=O)N(c3ccc(Cl)c(Cl)c3)C3=C2C(=O)CC(C)(C)C3)c1 | 0.9277 |
| CCCCc1c(C)nc2c(OC)cccc2c1O | 0.8472 |
| Cc1cc(N2CCN(C3CCCC3)CC2)n2c(nc3ccccc32)c1C#N | 0.7364 |
| COc1ccc(Nc2cc(C)nc(NCc3ccccc3)n2)cc1 | 0.7294 |
| COc1cc(C(=O)Nc2ccc(-c3nc4ccccc4[nH]3)cc2)cc(OC)c1OC | 0.6522 |
| CCOC(=O)C1CCN(C(=O)CN2C(=O)c3ccccc3C2c2c[nH]c3ccccc23)CC1 (configuration not stated) | 0.6812 |
| Clc1ccc2[nH]c3c(NCCCN4CCOCC4)ncnc3c2c1 | 0.9836 |
| COc1cc(-c2nc(-c3ccccc3)c(-c3ccccc3)[nH]2)cc(OC)c1O | 1.031 |
| Nc1nc(Nc2cccc(F)c2)nc2ccccc12 | 1.176 |
| O=C(O)C(=O)O.Oc1ccc(Br)cc1CN1CCN(Cc2cccc(F)c2)CC1 | 0.8333 |
| COc1ccc(C(C)=O)cc1N1C(=O)C2C(C1=O)C1(c3ccccc3)C(=O)C2(c2ccccc2)C(c2ccc(C)cc2)=C1c1ccc(C)cc1 (configuration not stated) | 0.8421 |
| CCCCC(O)(c1ccc(Cl)cc1)C(CN1CCOCC1)c1ccc(Cl)cc1.Cl (configuration not stated) | 1.074 |
| CCCCCCn1c(=N)n(CC(O)COc2cccc(C)c2)c2ccccc21.Cl (configuration not stated) | 0.9831 |
| CCCCOc1ccc(C(=O)Nc2cc(C)on2)cc1 | 0.9875 |
| COc1ccccc1CNC(=O)CCn1c(=O)[nH]c2ccccc2c1=O | 1.153 |
| Cc1[nH]c(-c2ccc(F)cc2)cc1C(=O)NC1CCN(Cc2ccccc2)CC1 | 0.8906 |
| COc1ccc(-c2nc3cc(Cc4ccc5[nH]c(-c6ccc(OC)cc6)nc5c4)ccc3[nH]2)cc1 | 1.389 |
| COc1ccc(CN2CCCC(C(=O)c3ccc(C(F)(F)F)cc3)C2)c(O)c1 (configuration not stated) | 0.8852 |
| Cc1cc(NC(=O)C2c3ccccc3C(=O)N(CC(C)C)C2c2cccs2)no1 (configuration not stated) | 0.791 |

| Structure (SMILES) | Ratio |
| --- | --- |
| CC1=C(CC(=O)c2cccc([N+](=O)[O-])c2)C(=O)c2ccccc2C1=O | 1.085 |
| Cc1cccc(Nc2nc(N)c3ccccc3n2)c1.Cl | 0.9275 |
| COc1ccc2nc(N)nc(C)c2c1 | 0.8974 |
| CCC1(C)CC(CCNCc2ccccc2O)(c2ccc(C)cc2)CCO1 (configuration not stated) | 0.8378 |
| CCOc1ccc(/C=C/c2nc(=O)c3ccccc3o2)cc1 | 0.7714 |
| COc1ccc(NC(=O)C2c3ccccc3C(=O)N(CC(C)C)C2c2cccs2)cc1Cl (configuration not stated) | 0.9242 |
| CCN1CCN(c2c(C(=O)c3ccccc3)cnc3cc(OC)c(OC)cc23)CC1 | 0.9828 |
| COc1ccc2c(c1)OC(O)(C(F)(F)C(F)(F)F)CC2=O (configuration not stated) | 0.9 |
| CC(C)(C)CC(C)(C)NCC(O)COc1ccc2c(c1)CCC2.Cl (configuration not stated) | 1.052 |
| Cc1ccc(-c2cc3nc4c(c(O)n3n2)CCCC4)cc1 | 0.9459 |
| c1ccc(/C2=N/c3ccccc3/N=C(/c3ccccc3)c3ccccc32)cc1 | 0.807 |
| CCOc1cccc(C(=O)Nc2ccc(-c3nc4ccccc4[nH]3)cc2)c1 | 1.322 |
| Cc1ccccc1OCCSc1nc2ccc(NC(=O)c3ccccc3)cc2s1 | 0.8842 |
| c1ccc2cc3c(Nc4ccc(N5CCOCC5)cc4)ccnc3cc2c1 | 0.7931 |
| COc1ccc(-c2nc(NC(=O)CS(=O)(=O)c3ccc(F)cc3)sc2C)cc1 | 0.8289 |
| COc1ccc(CCN2C(=O)c3[nH]nc(-c4cc(Cl)c(C)cc4O)c3C2c2ccccc2F)cc1 (configuration not stated) | 0.7742 |
| CCN1CCN(Cc2ccc(NC(=O)c3cc4ccc5cccnc5c4[nH]3)cc2)CC1 | 1.563 |
| CN(C)CCCNc1c2ccccc2nc2ccccc12 | 0.7564 |
| COc1ccc(C(=O)Nc2ccc3nc(N4CCCCC4)cc(C)c3c2)cc1OC | 0.7897 |
| CCN(CC)CCNc1ccnc2cc3ccccc3cc12.O=P(O)(O)O | 1.056 |
| CCOc1ccc2nc(C)cc(Nc3ccc(Br)cc3)c2c1 | 1.038 |
| CCn1nc(-c2ccc(C(=O)OC)cc2)nc2c(=O)n(C)c(=O)nc1-2 | 1.058 |

| Structure (SMILES) | Ratio |
| --- | --- |
| O=C(Nc1nc(-c2ccccn2)cs1)c1ccccc1Br | 0.987 |
| CCCc1cc(O)c2c3c(c(=O)oc2c1)CN(C)CC3 | 0.8028 |
| Cc1ccc(S(=O)(=O)c2c(COC(=O)c3cccc(C)c3)c(-c3ccccc3)nn2C)cc1 | 0.9265 |
| Cc1cc(NC(=O)c2cccc(C(F)(F)F)c2)n(-c2nc(-c3ccc4c(c3)OCO4)cs2)n1 | 0.8908 |
| Br.CCN(CC)S(=O)(=O)c1ccc(-c2csc(Nc3ccc(C)c(C)c3)n2)cc1 | 0.8 |
| Nc1ccn([C@@H]2O[C@H](CO)[C@@H](O)[C@H]2O)c(=O)n1 [CYTIDINE] | 0.6667 |
| C=CCc1c(C)nc2ccccc2c1O | 0.9595 |
| CCOC(=O)c1c[nH]c2c(CC)cccc2c1=O | 0.8986 |
| O=C(Nc1ccc(N2CCN(Cc3ccccc3)CC2)cc1)c1cccs1.O=C(O)C(F)(F)F | 0.8148 |
| CC1CCN(Cc2c(O)ccc3cc(-c4nc5ccccc5s4)c(=O)oc23)CC1 | 1.058 |
| C=C(C)CCC(C)N1CCC(N2CCC(C(=O)NCCc3ccccc3)CC2)CC1 (configuration not stated) | 0.756 |
| Cc1ccc(F)cc1NC(=O)c1cc(Cl)ccc1Nc1ccccc1 | 1.055 |
| CCCCNc1nc(NC(C)(C)C)nc(NC(C)(C)C)n1 | 1.02 |
| CN(C)c1ccc(-c2nc3cc(N)ccc3[nH]2)cc1 | 1.036 |
| Cc1cc(N(C)C)nc(Nc2ccc(NC(=O)Nc3ccccc3)cc2)n1 | 1.017 |
| CCOC(=O)c1c(C)n(-c2ccccc2)c2ccc(OC(=O)c3cc(OC)c(OC)c(OC)c3)cc12 | 0.9 |
| O=C(NNc1cc(N2CCCC2)nc(N2CCCC2)n1)c1ccccc1 | 0.9508 |
| CCOc1ccc(N2C(N)=NC(N)=NC2(C)C)cc1.Cl | 0.7815 |
| CCOC(=O)c1cnc2ccc(CC)cc2c1O | 1 |
| O=C(Nc1ccc(N2CCCCC2)c(Cl)c1)c1ccc(Br)o1 | 0.8784 |
| COc1ccc2nc(C)cc(Nc3ccccc3O)c2c1 | 0.7711 |
| OC1=C2C(=Nc3ccccc3SC2c2ccc(Br)cc2)c2ccccc21 (configuration not stated) | 1.068 |

| Structure (SMILES) | Ratio |
| --- | --- |
| COc1ccc(-c2cc(=O)oc3c4c(ccc23)OCN(Cc2ccc(F)cc2)C4)cc1 | 0.9508 |
| CCCCCCc1cc2cc(-c3nc4ccccc4[nH]3)c(=Nc3ccccc3C)oc2cc1O | 0.9685 |
| COc1ccc(C2c3ccc4ccccc4c3Oc3ncn(CCCn4ccnc4)c(=N)c32)cc1OC (configuration not stated) | 1.051 |
| COc1ccc(C2NCCc3c2[nH]c2ccccc32)cc1CN1CCN(c2ccc(F)cc2)CC1.Cl (configuration not stated) | 0.8727 |
| CCOc1ccccc1CN1CCc2nc3cc(C(C)(C)C)nn3c(O)c2C1 | 0.8444 |
| COc1cccc(C(=O)Nc2ccc(-c3nc4ccccc4[nH]3)cc2)c1 | 0.7651 |
| COc1ccc(C2N(C)c3ccccc3N2C)cc1 | 0.8737 |
| COc1cc(SC)ccc1C(=O)N1CCCC(C)C1 (configuration not stated) | 0.6888 |
| COc1ccc(C(=O)NC(c2ccccc2Cl)c2cc(Cl)c3cccnc3c2O)cc1 (configuration not stated) | 1.365 |
| Cc1ccc(Nc2nc(N)c3ccccc3n2)cc1Cl | 0.9206 |
| COc1ccccc1N1CCN(C(CNS(=O)(=O)c2ccc(Cl)cc2)c2cccnc2)CC1 (configuration not stated) | 0.8506 |
| CCOC(=O)c1cnc2c(C)cc(C)cc2c1Nc1ccc(OC)c(OC)c1 | 1.122 |
| CCOc1ccc(CCNC(=O)c2cccs2)cc1OCC | 1.073 |
| Cl.Cn1c(=O)n(C)c2cc(CNCCNc3ccnc4cc(Cl)ccc34)ccc21 | 1.09 |
| CCOC(=O)c1ccc2nc(-c3ccccc3)cc(O)c2c1 | 0.3465 |
| CN(C)c1ccc(N2C(N)=NC(N)=NC2(C)C)cc1 | 0.7632 |
| CN1CCN(c2c3c(c(C#N)c4nc5ccccc5n24)CCC3)CC1 | 1.032 |
| COc1ccc(C(=O)C(CCC(CNC(C)(C)C)C(=O)c2ccc(OC)cc2)CNC(C)(C)C)cc1 (configuration not stated) | 0.9453 |
| Cc1ccc(C)c(Cn2c(N3CCC(C(=O)NCc4cccs4)CC3)nc3ccccc32)c1 | 1 |
| CN(C)CCCNCc1ccc(-c2ccc(F)c(Cl)c2)o1.Cl | 0.75 |
| COc1ccc(/C=C2/SC(=Nc3ccccc3)NC2=O)cc1 | 1.136 |
| CCCn1c(=N)c(C(=O)NC2CCCCC2)cc2c(=O)n3cccc(C)c3nc21 | 0.8 |

| Structure (SMILES) | Ratio |
| --- | --- |
| CC(NCc1ccccc1)c1cc(Cl)ccc1O (configuration not stated) | 0.6957 |
| CCOc1cc2c(cc1OCC)C(c1cc(Cl)c(O)c(OCC)c1)NCC2 (configuration not stated) | 0.8824 |
| O=C(CCc1ccccc1)c1ccccc1OCC(O)CN1CCCCC1 (configuration not stated) | 1 |
| COc1ccc(C=C2SC(=N)N(c3ccccc3OC)C2=O)cc1 | 0.8861 |
| CCOC(=O)c1cnc2ccc(Cl)cc2c1NCCCN(C)C | 1.179 |
| CCc1c(C)c(=N)c2ccccc2n1C.I | 1.064 |
| CCOC(=O)c1c(C)n(-c2ccc(Cl)cc2)c2ccc(OC(=O)C=Cc3ccccc3)cc12 | 1.121 |
| CCOc1c(Cl)cc(CNCC(O)c2ccccc2)cc1OC (configuration not stated) | 0.8286 |
| CCC(=O)Nc1nnc(Cc2ccc(OC)c(OC)c2)s1 | 0.7213 |
| COc1cccc(C(=O)NC(c2ccc(C)cc2)c2cc(Cl)c3cccnc3c2O)c1 (configuration not stated) | 1.1 |
| Cc1ccc(OCCCCCCNCCO)c(C)c1 | 0.8556 |
| CC(C)(C)c1ccc(C2CC3=Nc4ccccc4N(C(=O)c4ccccc4Cl)C(c4ccc(F)cc4)C3=C(O)C2)cc1 (configuration not stated) | 1 |
| CC(O)(c1ccc(Cl)cc1)C(CN1CCCCC1)c1ccccc1.Cl (configuration not stated) | 0.9286 |
| OC1=C2C(=Nc3ccccc3SC2c2ccccc2)c2ccccc21 (configuration not stated) | 1.213 |
| CN(C)CCNc1cc(-c2ccccc2)nc2ccccc12 | 1.015 |
| CCOC(=O)C1(Cc2ccccc2)CCN(Cc2cccc(OC)c2O)CC1 | 0.7015 |
| CCCCOC(=O)c1ccc(Nc2cc(C)nc3ccc(OC)cc23)cc1 | 1.132 |
| Cc1ccc2c(C)nc(Nc3nc(C)cc(-c4ccccc4)n3)nc2c1 | 0.8649 |
| COc1cccc(Nc2nc(NCCO)c3ccccc3n2)c1.Cl | 0.7297 |
